Test results: ChEMBL document CHEMBL5370560, “Isolation of Anti-SARS-CoV-2 Natural Products Extracted from Mentha canadensis and the Semi-synthesis of Antiviral Derivatives” (J Nat Prod, 2023)
≈ marks a conversion by molar mass, not a printed value.

System: SARS-CoV-2
Test: Antiviral activity against SARS-CoV-2 hCoV-19/Egypt/NRC-03/2020 infected in Vero E6 cells assessed as reduction in plaque formation pretreated with cells for 1 hr followed by viral infection for 1 hr with subsequent replacement of compound containing medium and measured after 3 to 4 days by crystal violet staining based analysis
Format: functional, organism-based
Settings: Severe acute respiratory syndrome coronavirus 2, hCoV-19/Egypt/NRC-03/2020, Vero C1008

In the case of `O=C(/C=C/c1ccc(O)c(O)c1)O[C@H](Cc1ccc(O)c(O)c1)C(=O)O` [ROSMARINIC ACID], the IC50 was 0.0255 µg/mL (≈ 0.0707 µM).
